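Assay format: 96-well plates, 48-hour exposure. TGI is the concentration that stops growth completely.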
How the values were obtained:
Assay in all cases: inhibition of tumour cell growth, NCI panel, 48 h
NCI-H23 lung = tested on: NCI-H23 lung
ACHN renal = tested on: ACHN renal
A549 NSCLC = tested on: A549 NSCLC
HT29 colon = tested on: HT29 colon
NCI-H226 lung = tested on: NCI-H226 lung
A498 renal = tested on: A498 renal
TK-10 renal = tested on: TK-10 renal
HOP-62 NSCLC = tested on: HOP-62 NSCLC
PC-3 prostate = tested on: PC-3 prostate
MDA-MB-231 breast = tested on: MDA-MB-231 breast
SW-620 colon = tested on: SW-620 colon
MDA-N = tested on: MDA-N
COLO 205 colon = tested on: COLO 205 colon
SF-539 CNS = tested on: SF-539 CNS
HCT-116 colon = tested on: HCT-116 colon
U251 CNS = tested on: U251 CNS
SF-268 CNS = tested on: SF-268 CNS
BT-549 breast = tested on: BT-549 breast
SK-MEL-5 melanoma = tested on: SK-MEL-5 melanoma
UACC-257 melanoma = tested on: UACC-257 melanoma
K-562 leukemia = tested on: K-562 leukemia
MOLT-4 leukemia = tested on: MOLT-4 leukemia
OVCAR-3 ovarian = tested on: OVCAR-3 ovarian
CAKI-1 renal = tested on: CAKI-1 renal
MCF7 breast = tested on: MCF7 breast
LOX IMVI melanoma = tested on: LOX IMVI melanoma
SK-OV-3 ovarian = tested on: SK-OV-3 ovarian
HCT-15 colon = tested on: HCT-15 colon
SF-295 CNS = tested on: SF-295 CNS
SN12C renal = tested on: SN12C renal
CCRF-CEM leukemia = tested on: CCRF-CEM leukemia
RPMI-8226 leukemia = tested on: RPMI-8226 leukemia
M14 melanoma = tested on: M14 melanoma
KM12 colon = tested on: KM12 colon
NCI/ADR-RES ovarian = tested on: NCI/ADR-RES ovarian
SK-MEL-28 melanoma = tested on: SK-MEL-28 melanoma
OVCAR-5 ovarian = tested on: OVCAR-5 ovarian
IGROV1 ovarian = tested on: IGROV1 ovarian
SNB-19 CNS = tested on: SNB-19 CNS
SK-MEL-2 melanoma = tested on: SK-MEL-2 melanoma
MDA-MB-435 = tested on: MDA-MB-435
SNB-75 CNS = tested on: SNB-75 CNS
T-47D breast = tested on: T-47D breast
OVCAR-8 ovarian = tested on: OVCAR-8 ovarian
NCI-H460 lung = tested on: NCI-H460 lung
HL-60(TB) leukemia = tested on: HL-60(TB) leukemia
UACC-62 melanoma = tested on: UACC-62 melanoma
EKVX NSCLC = tested on: EKVX NSCLC
OVCAR-4 ovarian = tested on: OVCAR-4 ovarian
DU-145 prostate = tested on: DU-145 prostate
786-0 renal = tested on: 786-0 renal
NCI-H522 lung = tested on: NCI-H522 lung
RXF 393 renal = tested on: RXF 393 renal
UO-31 renal = tested on: UO-31 renal
HOP-92 NSCLC = tested on: HOP-92 NSCLC
SR leukemia = tested on: SR leukemia
HCC-2998 colon = tested on: HCC-2998 colon
MALME-3M melanoma = tested on: MALME-3M melanoma

CCOP(=O)(/C=C/n1ccc(=O)[nH]c1=O)OCC
TGI (NCI-H23 lung): > 100 µM
TGI (ACHN renal): > 100 µM
TGI (A549 NSCLC): > 100 µM
TGI (HT29 colon): > 100 µM
TGI (NCI-H226 lung): > 100 µM
TGI (A498 renal): > 100 µM
TGI (TK-10 renal): > 100 µM
TGI (HOP-62 NSCLC): > 100 µM
TGI (PC-3 prostate): > 100 µM
TGI (MDA-MB-231 breast): > 100 µM
TGI (SW-620 colon): > 100 µM
TGI (MDA-N): > 100 µM
TGI (COLO 205 colon): > 100 µM
TGI (SF-539 CNS): > 100 µM
TGI (HCT-116 colon): > 100 µM
TGI (U251 CNS): > 100 µM
TGI (SF-268 CNS): > 100 µM
TGI (BT-549 breast): > 100 µM
TGI (SK-MEL-5 melanoma): > 100 µM
TGI (UACC-257 melanoma): > 100 µM
TGI (K-562 leukemia): > 100 µM
TGI (MOLT-4 leukemia): > 100 µM
TGI (OVCAR-3 ovarian): > 100 µM
TGI (CAKI-1 renal): > 100 µM
TGI (MCF7 breast): > 100 µM
TGI (LOX IMVI melanoma): > 100 µM
TGI (SK-OV-3 ovarian): > 100 µM
TGI (HCT-15 colon): > 100 µM
TGI (SF-295 CNS): > 100 µM
TGI (SN12C renal): > 100 µM
TGI (CCRF-CEM leukemia): > 100 µM
TGI (RPMI-8226 leukemia): > 100 µM
TGI (M14 melanoma): > 100 µM
TGI (KM12 colon): > 100 µM
TGI (NCI/ADR-RES ovarian): > 100 µM
TGI (SK-MEL-28 melanoma): > 100 µM
TGI (OVCAR-5 ovarian): > 100 µM
TGI (IGROV1 ovarian): > 100 µM
TGI (SNB-19 CNS): > 100 µM
TGI (SK-MEL-2 melanoma): > 100 µM
TGI (MDA-MB-435): > 100 µM
TGI (SNB-75 CNS): > 100 µM
TGI (T-47D breast): > 100 µM
TGI (OVCAR-8 ovarian): > 100 µM
TGI (NCI-H460 lung): > 100 µM
TGI (HL-60(TB) leukemia): > 100 µM
TGI (UACC-62 melanoma): > 100 µM
TGI (EKVX NSCLC): > 100 µM
TGI (OVCAR-4 ovarian): > 100 µM
TGI (DU-145 prostate): > 100 µM
TGI (786-0 renal): > 100 µM
TGI (NCI-H522 lung): > 100 µM
TGI (RXF 393 renal): > 100 µM

CC(=O)NC(C)(C)C1CC=C(C)/C(=N\O)C1 (stereo unspecified)
TGI (NCI-H23 lung): > 100 µM
TGI (A549 NSCLC): > 100 µM
TGI (HT29 colon): > 100 µM
TGI (TK-10 renal): > 100 µM
TGI (HOP-62 NSCLC): > 100 µM
TGI (PC-3 prostate): > 100 µM
TGI (MDA-MB-231 breast): > 100 µM
TGI (SW-620 colon): > 100 µM
TGI (MDA-N): > 100 µM
TGI (COLO 205 colon): > 100 µM
TGI (SF-539 CNS): > 100 µM
TGI (HCT-116 colon): > 100 µM
TGI (U251 CNS): > 100 µM
TGI (SF-268 CNS): > 100 µM
TGI (UO-31 renal): > 100 µM
TGI (BT-549 breast): > 100 µM
TGI (SK-MEL-5 melanoma): > 100 µM
TGI (HOP-92 NSCLC): > 100 µM
TGI (UACC-257 melanoma): > 100 µM
TGI (K-562 leukemia): > 100 µM
TGI (MOLT-4 leukemia): > 100 µM
TGI (OVCAR-3 ovarian): > 100 µM
TGI (MCF7 breast): > 100 µM
TGI (LOX IMVI melanoma): > 100 µM
TGI (SK-OV-3 ovarian): > 100 µM
TGI (HCT-15 colon): > 100 µM
TGI (SF-295 CNS): > 100 µM
TGI (SN12C renal): > 100 µM
TGI (SR leukemia): > 100 µM
TGI (CCRF-CEM leukemia): > 100 µM
TGI (M14 melanoma): > 100 µM
TGI (KM12 colon): > 100 µM
TGI (SK-MEL-28 melanoma): > 100 µM
TGI (OVCAR-5 ovarian): > 100 µM
TGI (IGROV1 ovarian): > 100 µM
TGI (SNB-19 CNS): > 100 µM
TGI (HCC-2998 colon): > 100 µM
TGI (MDA-MB-435): > 100 µM
TGI (SNB-75 CNS): > 100 µM
TGI (T-47D breast): > 100 µM
TGI (OVCAR-8 ovarian): > 100 µM
TGI (NCI-H460 lung): > 100 µM
TGI (HL-60(TB) leukemia): > 100 µM
TGI (UACC-62 melanoma): > 100 µM
TGI (EKVX NSCLC): > 100 µM
TGI (OVCAR-4 ovarian): > 100 µM
TGI (DU-145 prostate): > 100 µM
TGI (786-0 renal): > 100 µM
TGI (NCI-H522 lung): > 100 µM

O=C(COc1ccc(OCC(=O)N2C(=O)CN(c3ccc(Cl)cc3)C2=S)cc1)N1C(=O)CN(c2ccc(Cl)cc2)C1=S
TGI (NCI-H23 lung): > 100 µM
TGI (ACHN renal): > 100 µM
TGI (A549 NSCLC): 78 µM
TGI (HT29 colon): 92.2 µM
TGI (NCI-H226 lung): 90.1 µM
TGI (A498 renal): 66.8 µM
TGI (TK-10 renal): 91.5 µM
TGI (PC-3 prostate): > 100 µM
TGI (MDA-MB-231 breast): 57 µM
TGI (SW-620 colon): > 100 µM
TGI (MDA-N): 92.5 µM
TGI (COLO 205 colon): 64.1 µM
TGI (HCT-116 colon): 32.6 µM
TGI (U251 CNS): 83.6 µM
TGI (SF-268 CNS): 97.6 µM
TGI (UO-31 renal): > 100 µM
TGI (BT-549 breast): > 100 µM
TGI (SK-MEL-5 melanoma): 34.5 µM
TGI (HOP-92 NSCLC): 88 µM
TGI (UACC-257 melanoma): 93.2 µM
TGI (K-562 leukemia): > 100 µM
TGI (MOLT-4 leukemia): > 100 µM
TGI (CAKI-1 renal): 40.6 µM
TGI (MCF7 breast): > 100 µM
TGI (SK-OV-3 ovarian): 90.3 µM
TGI (HCT-15 colon): > 100 µM
TGI (SF-295 CNS): > 100 µM
TGI (SN12C renal): 97.9 µM
TGI (MALME-3M melanoma): > 100 µM
TGI (RPMI-8226 leukemia): 75.9 µM
TGI (M14 melanoma): > 100 µM
TGI (KM12 colon): 43.4 µM
TGI (NCI/ADR-RES ovarian): > 100 µM
TGI (SK-MEL-28 melanoma): > 100 µM
TGI (OVCAR-5 ovarian): > 100 µM
TGI (IGROV1 ovarian): > 100 µM
TGI (SNB-19 CNS): > 100 µM
TGI (HCC-2998 colon): 51.4 µM
TGI (SK-MEL-2 melanoma): 36.6 µM
TGI (MDA-MB-435): > 100 µM
TGI (SNB-75 CNS): > 100 µM
TGI (NCI-H460 lung): 66.1 µM
TGI (UACC-62 melanoma): 51.5 µM
TGI (EKVX NSCLC): > 100 µM
TGI (OVCAR-4 ovarian): > 100 µM
TGI (DU-145 prostate): > 100 µM
TGI (786-0 renal): 58.6 µM
TGI (NCI-H522 lung): 69.2 µM
TGI (RXF 393 renal): 67.5 µM
